Laboratory results: publication PMC6389950, “Small Peptide Ligands for Targeting EGFR in Triple Negative Breast Cancer Cells” (Scientific Reports, 2019)
“And” between values parts separate entries of the source, which are not always exact repeats. Equal values may be shown once. Where a SMILES comes first, the peptide text is derived from it. The star is where a group is joined. FITC = O=C1OC2(c3ccc(O)cc3Oc3cc(O)ccc32)c2ccc(NC(=S)*)cc21; βAla = NCCC(=O)O

B1: FITC-labeled soluble peptide 22 (peptide)
peptide: {FITC-βAla}-YHWYGYTPENVI-OH
notes: GE11 analogue, Q9E; also called peptide FITC-22; FITC-22; source: synthetic peptide (Fmoc-SPPS, RP-HPLC purified)

Key:
EGFR on MDA-MB-231 cells = molecular target: T1, EGFR on MDA-MB-231 cells (Homo sapiens, UniProt P00533); test: Competitive uptake by FACS with excess EGF protein or unlabeled peptide 1; type: cell-based; conditions: MDA-MB-231 cells (10^5), FITC-peptide 1 μM, 30 min
T1 construct: host or cells: MDA-MB-231
Description: The specific uptake of peptides 1 and 22 was evaluated using a competitive assay. First, MDA-MB-231 cells were incubated with peptide FITC-1 in the presence and absence of excess EGF protein (20-fold). […] The competition experiment was also repeated with peptide 22 in the presence and absence of EGF protein.
In addition, MDA-MB-231 cells (10^5) were incubated with varying concentration of peptide FITC-22 (0–6 μM). The resulting samples were treated as above, and the experiment was repeated. The fluorescence intensity of the FITC peptide-cell complex was plotted against peptide concentration. […] Control group was treated with media alone containing ~5% DMSO. Each group was done in duplicate and the experiment was repeated once.

MDA-MB-468 [1] = test: Peptide array-whole cell binding assay; type: cell-based; conditions: peptide conjugated to cellulose membrane (amino-PEG500), no free C-terminus; cells 75 × 10^3 cells/mL, 37 °C, 4 h; CyQUANT fluorescence relative to peptide 1; spots in duplicate
From the text: (§1) Peptide array on the cellulose membrane was used to evaluate the binding of each peptide to different cell lines. The amino functionalized cellulose membrane provided by Intavis is acid hardened providing high stability at pH range from 1–14, permitting its use in acidic or basic conditions while maintaining membrane integrity. The PEG linker on membrane surface functions as a hydrophilic spacer between the peptide and the solid surface (membrane) reducing background signal. Cell lines were carefully selected for screening peptides as our goal here is to screen peptides with high binding/uptake by the TNBC cells. […] EGFR is overexpressed by a number of TNBC cells such as MDA-MB-468 (obtained from primary tumor source) and MDA-MB-231 (from metastasis cancer tissue)[13],[14]. While other TNBC cells like MDA-MB-436 (obtained from metastasis cancer tissue) are known to express low levels of EGFR. Non-tumorigenic epithelial MCF10A and MCF12A cells derived from the breast tissue also express low levels of EGFR[14],[34]. We selected two TNBC cell lines with relatively high expression of EGFR expression (MDA-MB-468/231) and a TNBC cell line with low level of EGFR expression (MDA-MB-436) for the peptide array screening experiments. In addition, non- tumorigenic cell line, MCF-10A was used for comparison. These four cell lines were allowed to bind the membrane by seeding the cells on the membrane and the bound cells were labeled with a fluorescent dye CyQUANT.
(§2) For the binding assay, the peptide array was incubated with the cells in sequential steps as described previously. Briefly peptide array membrane was dipped in ethanol for 30 s to remove any precipitation on it, followed by dipping in sterile PBS (pH 7.4) for another 30 min. The cells (75 × 10^3 cells/mL) were seeded directly on the membrane in a sterile plate and incubated at 37 °C for 4 h. The unbound cells were washed out with sterile PBS (pH 7.4). Thereafter the membrane was placed in a sealed bag and transferred to −80 °C freezer for 2 h. Subsequently it was defrosted at room temperature and treated with CyQUANT solution. The CyQUANT concentration was optimized based on the manufacturer’s protocol and preliminary experiments. Membrane was incubated at 37 °C for 30 min with the dye. After washing with sterile PBS and air drying using blow dryer, the membrane was scanned using Bio-rad chemidoc imager with image lab software. The settings were adjusted based on the excitation (465 nm) and emission (535 nm) wavelengths of CyQUANT dye. Epi Blue was selected for the light source (455–485 nm) and filter number 4 (blue filter, 518–546 nm) was employed. The fluorescence intensity of cancer cells read using chemidoc imager was normalized using the non-cancer cell fluorescence intensity. Eventually relative fluorescence was assessed to select peptides with high affinity to cancer cells and low or minimal binding to normal cells.

MDA-MB-231 [2] = test: Peptide array-whole cell binding assay; type: cell-based; conditions: peptide conjugated to cellulose membrane (amino-PEG500), no free C-terminus; cells 75 × 10^3 cells/mL, 37 °C, 4 h; CyQUANT fluorescence relative to peptide 1; spots in duplicate
From the text: as §1, §2

MDA-MB-436 [3] = test: Peptide array-whole cell binding assay; type: cell-based; conditions: peptide conjugated to cellulose membrane (amino-PEG500), no free C-terminus; cells 75 × 10^3 cells/mL, 37 °C, 4 h; CyQUANT fluorescence relative to peptide 1; spots in duplicate
From the text: as §1, §2

MCF-10A = test: Peptide array-whole cell binding assay; type: cell-based; conditions: non-tumorigenic cells; peptide conjugated to cellulose membrane (amino-PEG500); cells 75 × 10^3 cells/mL, 37 °C, 4 h; CyQUANT fluorescence relative to peptide 1; spots in duplicate
From the text: as §1, §2

[4] = Peptide stability in human serum; type: in vitro ADME; conditions: preliminary results, data not shown
MDA-MB-468 [5] = test: In vitro cellular uptake of FITC-labeled peptides by FACS; type: cell-based; conditions: 30 min, 37 °C; for Mean Fluorescence Intensity ± SD MDA-MB-468: soluble FITC-β-alanine-labeled peptide 1 µM, FBS free media, 10^5 or 10^6 cells/well, MFI of FITC positive cells, three independent experiments ± SD
From the text: (§3) Flow cytometry was employed to determine the cellular uptake of selected six peptides (1, 4, 22, 23, 26, and 27). As opposed to the membrane bound (conjugated) peptide in library screening, the peptides used here were soluble (or free) FITC-labeled peptides. Peptides were labeled with FITC in the N-terminal and a β-alanine residue was used as a spacer between the FITC and the peptide sequence. The same three TNBC cells lines (MDA-MB-468, MDA-MB-231 and MDA-MB-436) used for peptide array screening were used here as well. Peptides 1 and 4 were used as controls. […] Peptide 4 was included in this experiment to compare the uptake of this keratin 1 binding peptide with the EGFR binding peptides. Peptides 22, 23, 26, and 27 were identified as the best EGFR binding peptides from the library screening.
(§4) Fluorescence-activated cell-sorting (FACS) analysis was used to check the uptake of the FITC-peptides. The stock solution for the FITC-peptides (100 μM) was prepared by dissolving the peptides in sterile water/10% DMSO. MDA-MB-231, MDA-MB-468 and MDA-MB-436 cells were seeded in 6-well plates with 10^6/10^5 cells/well containing 3 mL media and the plates were incubated at 37 °C overnight. The following day, the media was replaced with fresh FBS free media (1 mL) containing FITC-labeled peptide (1 µM), and further incubated at 37 °C for 30 min. Thereafter the media was removed and the cells were washed with cold PBS to remove any remaining peptide. Adequate trypsin was added to each well followed by 3–5 min incubation at 37 °C. Trypsin was immediately neutralized by adding media and the cell suspension was transferred into centrifuge tubes. The cells were separated and washed twice with FACS sheath fluid. The control cells were treated similarly but without peptide. Two wells were assigned for each peptide and each well sample was read twice in FACS machine. The experiment was repeated once. MFI represents the average of all wells for each peptide.

MDA-MB-231 [6] = test: as above; type: cell-based; conditions: 30 min, 37 °C; for Mean Fluorescence Intensity ± SD MDA-MB-231: soluble FITC-β-alanine-labeled peptide 1 µM, FBS free media, 10^5 or 10^6 cells/well, MFI of FITC positive cells, three independent experiments ± SD
From the text: as §3, §4

MDA-MB-436 [7] = test: as above; type: cell-based; conditions: soluble FITC-β-alanine-labeled peptide 1 µM, 30 min, 37 °C, FBS free media, 10^5 or 10^6 cells/well, MFI of FITC positive cells, three independent experiments ± SD
From the text: as §3, §4

breast cancer cells = conditions: compared to linear peptide 18–4; cited from earlier work
From the text: (§5) We found a region in EGF that may have structural similarity to peptide 22 (Fig. 4b). There is low sequence homology between the two sequences (peptide 22 and 12-residue region of EGF), however, based on the pr ...

[8] = cited from earlier work
From the text: as §5

[9] = molecular target: T2, epidermal growth factor receptor (EGFR or ErbB1) (human (endogenous in MDA-MB-468, …, UniProt P00533 25-1210)); test: flow cytometry on cells; competition: MDA-MB-231 cells (10^5); EGF (20 µM, 20-fold excess) or unlabeled peptide 1 (100 µM, 100-fold excess) added first, then FITC-labelled peptide 1 or 22 (1 µM), 30 min; conditions: one partner purified
T2 construct: epidermal growth factor receptor, endogenous on human breast cell lines; expression levels are cited, not measured here; no isolated EGFR was used

[10] = soluble FITC-labeled peptide 1 µM

Row | Molecule | Relative Cell Adhesion MDA-MB-468 (MDA-MB-468 [1]) | Relative Cell Adhesion MDA-MB-231 (MDA-MB-231 [2]) | Relative Cell Adhesion MDA-MB-436 (MDA-MB-436 [3]) | Relative Cell Adhesion MCF-10A (MCF-10A) | Mean Fluorescence Intensity ± SD MDA-MB-468 (MDA-MB-468 [5]) | Mean Fluorescence Intensity ± SD MDA-MB-231 (MDA-MB-231 [6]) | Mean Fluorescence Intensity ± SD MDA-MB-436 (MDA-MB-436 [7]) | other results
1 | CC[C@H](C)[C@H](NC(=O)[C@@H](NC(=O)[C@H](CC(N)=O)NC(=O)[C@H](CCC(=O)O)NC(=O)[C@@H]1CCCN1C(=O)[C@@H](NC(=O)[C@H](Cc1ccc(O)cc1)NC(=O)CNC(=O)[C@H](Cc1ccc(O)cc1)NC(=O)[C@H](Cc1c[nH]c2ccccc12)NC(=O)[C@H](Cc1c[nH]cn1)NC(=O)[C@@H](N)Cc1ccc(O)cc1)[C@@H](C)O)C(C)C)C(=O)O [Peptide 22] (H-YHWYGYTPENVI-OH) | 1.6 | 2.6 | 1.3 | 1.2 | 8384 ± 735 | 1978 ± 522 | 41 ± 27 | FITC positive cells, no competitor (EGFR on MDA-MB-231 cells; rounded value): 99%; Decrease in fluorescence / FITC positive cells in the presence of 20-fold excess EGF protein (EGFR on MDA-MB-231 cells; EGF 20 μM): 97%; FITC positive cells in the presence of 20-fold excess EGF protein (EGFR on MDA-MB-231 cells; EGF 20 μM, rounded value): 2%; Stability in the presence of human serum (in words) [4]: short half-life; Uptake compared to peptide 1, MDA-MB-468 (MDA-MB-468 [5]; [10]): 123 fold; Uptake compared to peptide 1, MDA-MB-231 (MDA-MB-231 [6]; [10]): 47 fold
2 | FITC-AβYHWYGYTPQNVI [FITC-1, reference compound] | – | – | – | – | – | – | – | Decrease in fluorescence in the presence of 100-fold excess unlabeled peptide 1 (EGFR on MDA-MB-231 cells; unlabeled peptide 1 100 μM): 19.5%
3 | Peptide 1: previously reported EGFR targeting dodecapeptide GE11 (YHWYGYTPQNVI), lead peptide [reference compound] | – | – | – | – | 68 ± 45 | 42 ± 8 | 105 ± 11 | Stability in the presence of human serum (in words) [4]: short half-life
4 | Peptide 4: positive control peptide p160, VPWXEPAYQRFL, binds keratin 1 [reference compound] | 1.1 | 1.3 | 1.1 | 1.2 | 23741 and 23741 ± 3068 | 4791 ± 354 | 305 ± 58 | –
5 | YHWYGYTPKNVI [Peptide 26] | 1.3 | 1.6 | 1.0 | 0.8 | 6457 ± 557 | 1877 ± 67 | 16 ± 18 | –
6 | YHWYGYTPQDVI [Peptide 23] | 1.6 | 2.8 | 1.0 | 1.4 | 4661 ± 883 | 1631 ± 110 | 36 ± 14 | –
7 | YHWYGYTPQKVI [Peptide 27] | 1.2 | 1.8 | 1.0 | 1.0 | 5248 ± 407 | 1683 ± 163 | 21 ± 17 | –
8 | cyclic WXEAAYQkFL (head to tail) [N- to C terminal cyclized analogue of breast cancer targeting peptide 18–4, k is D-lysine] | – | – | – | – | – | – | – | Uptake by the breast cancer cells compared to the linear peptide (in words) (breast cancer cells): higher uptake; Stability toward proteolytic degradation (in words) [8]: stable toward proteolytic degradation
9 | B1 | – | – | – | – | – | – | – | percent FITC positive cells, with 20-fold excess EGF [9]: 2%
